Reference: patent US10487093B2, “Heterocyclic compounds, in particular 2-oxo-4,4,5,5,6,6,7,7-octahydrobenzoxazole derivatives, and their use as antibacterial compounds” (priority 2016, dated 2019)
Converted amounts (≈) assume the structure as drawn.

Legend:
[1] = tested on: Enterobacter cloacae NCTC 13406; experiment: MIC, broth microdilution (CLSI) versus planktonic bacteria; type: cell-based; details: NCTC13406; Enterobacter cloacae NCTC 13406; 16-20 h; mode of three independent experiments; read-out: MIC, Ecl NCTC 13406
[2] = tested on: E. coli MG1655; experiment: as above; type: cell-based, Escherichia coli; details: Escherichia coli, MG1655, read-out: MIC, Ec MG1655 WT
[3] = tested on: Staphylococcus aureus ATCC 29213; experiment: as above; type: cell-based; details: ATCC29213; Staphylococcus aureus ATCC 29213; 16-20 h; mode of three independent experiments; read-out: MIC, Sa ATCC 29213
[4] = tested on: E. coli MG1655 S83L; type: cell-based, Escherichia coli; details: compared to the isogenic parent strain E. coli MG1655; S83L mutation on DNA gyrase subunit GyrA
[5] = tested on: Streptococcus pneumoniae ATCC 49619; experiment: MIC, broth microdilution (CLSI) versus planktonic bacteria; type: cell-based; details: ATCC49619; Streptococcus pneumoniae ATCC 49619; 16-20 h; mode of three independent experiments; read-out: MIC, Sp ATCC 49619
[6] = tested on: Acinetobacter baumannii NCTC 13420; experiment: as above; type: cell-based; details: NCTC13420; Acinetobacter baumannii NCTC 13420; 16-20 h; mode of three independent experiments; read-out: MIC, Ab NCTC 13420
[7] = tested on: Escherichia coli ATCC 25922; experiment: as above; type: cell-based; details: ATCC25922; Escherichia coli ATCC 25922; 16-20 h; mode of three independent experiments; read-out: MIC, Ec ATCC 25922
[8] = tested on: E. coli ATCC BAA-2452; experiment: as above; type: cell-based; details: Escherichia coli ATCC BAA-2452; 16-20 h; mode of three independent experiments; read-out: MIC, Ec ATCC BAA 2452
[9] = tested on: E. coli NCTC 13476; experiment: as above; type: cell-based; details: NCTC13476; Escherichia coli NCTC 13476; 16-20 h; mode of three independent experiments; read-out: MIC, Ec NCTC 13476
[10] = tested on: E. coli MG1655 D87G; type: cell-based, Escherichia coli; details: compared to the isogenic parent strain E. coli MG1655; D87G mutation on DNA gyrase subunit GyrA
[11] = tested on: Acinetobacter baumannii ATCC 19606; experiment: MIC, broth microdilution (CLSI) versus planktonic bacteria; type: cell-based; details: ATCC19606; Acinetobacter baumannii ATCC 19606; 16-20 h; mode of three independent experiments; read-out: MIC, Ab ATCC 19606
[12] = tested on: Haemophilus influenzae ATCC 49247; experiment: as above; type: cell-based; details: ATCC49247; Haemophilus influenzae ATCC 49247; 16-20 h; mode of three independent experiments; read-out: MIC, Hi ATCC 49247
[13] = tested on: Pseudomonas aeruginosa ATCC 27853; experiment: as above; type: cell-based; details: ATCC27853; Pseudomonas aeruginosa ATCC 27853; 16-20 h; mode of three independent experiments; read-out: MIC, Pa ATCC 27853
[14] = tested on: human hepatic cell line (HepG2 ATCC HB-8065); experiment: Human cell viability assay (CellTiter-Glo); details: Homo sapiens, HepG2, 24 h, read-out: IC50 (μg/mL) HepG2

Structure (SMILES) | MIC [1] | MIC [2] | MIC [3] | Fold increase in MIC, E. coli MG1655 S83L [4] | MIC [5] | MIC [6] | MIC [7] | MIC [8] | MIC [9] | Fold increase in MIC, E. coli MG1655 D87G [10] | MIC [11] | MIC [12] | MIC [13] | IC50 [14]
COc1cnc2ccc(=O)n(CCN[C@H]3CC[C@H]4[C@@H](C3)OC(=O)N4c3ccc4c(n3)NC(=O)CO4)c2c1 [Compound 30, 1-(2-{[(3aS,6S,7aR)-2-oxo-3-{3-oxo-2H,3H,4H-pyrido[3,2-b][1,4]oxazin-6-yl}-octahydro-1,3-benzoxazol-6-yl]amino}ethyl)-7-methoxy-1,2-dihydro-1,5-naphthyridin-2-one] | 1 to 10 µg/mL (≈ 1.97 to 19.7 µM) | < 1 µg/mL | < 1 µg/mL | 2 fold | < 1 µg/mL | < 1 µg/mL | < 1 µg/mL | < 1 µg/mL | < 1 µg/mL | 2 fold | 1 to 10 µg/mL (≈ 1.97 to 19.7 µM) | < 1 µg/mL | < 1 µg/mL | > 100 µg/mL
N#Cc1ccc2ncc(=O)n(CCN[C@H]3CC[C@H]4[C@@H](C3)OC(=O)N4c3ccc4c(n3)NC(=O)CO4)c2c1 [Compound 31, 4-(2-{[(3aS,6S,7aR)-2-oxo-3-{3-oxo-2H,3H,4H-pyrido[3,2-b][1,4]oxazin-6-yl}-octahydro-1,3-benzoxazol-6-yl]amino}ethyl)-3-oxo-3,4-dihydroquinoxaline-6-carbonitrile] | < 1 µg/mL | < 1 µg/mL | < 1 µg/mL | 1 fold | < 1 µg/mL | < 1 µg/mL | < 1 µg/mL | < 1 µg/mL | 1 to 10 µg/mL (≈ 1.99 to 19.9 µM) | 2 fold | < 1 µg/mL | < 1 µg/mL | 1 to 10 µg/mL (≈ 1.99 to 19.9 µM) | > 100 µg/mL
COc1ccc2ncc(=O)n(CCN[C@H]3CC[C@H]4[C@@H](C3)OC(=O)N4c3ccc4c(n3)NC(=O)CO4)c2n1 [Compound 35, (3aS,6S,7aR)-6-[(2-{6-methoxy-3-oxo-3H,4H-pyrido[2,3-b]pyrazin-4-yl}ethyl)amino]-3-{3-oxo-2H,3H,4H-pyrido[3,2-b][1,4]oxazin-6-yl}-octahydro-1,3-benzoxazol-2-one] | < 1 µg/mL | < 1 µg/mL | < 1 µg/mL | 1 fold | < 1 µg/mL | < 1 µg/mL | < 1 µg/mL | < 1 µg/mL | < 1 µg/mL | 2 fold | < 1 µg/mL | < 1 µg/mL | < 1 µg/mL | > 100 µg/mL
COc1ccc2ccc(=O)n(CCN[C@@H]3CC[C@@H]4[C@@H](C3)OC(=O)N4c3ncc4c(n3)NC(=O)CO4)c2n1 [Compound 44, 1-(2-{[(3aR,6R,7aR)-2-oxo-3-{7-oxo-6H,7H,8H-pyrimido[5,4-b][1,4]oxazin-2-yl}-octahydro-1,3-benzoxazol-6-yl]amino}ethyl)-7-methoxy-1,2-dihydro-1,8-naphthyridin-2-one] | < 1 µg/mL | < 1 µg/mL | < 1 µg/mL | 2 fold | < 1 µg/mL | < 1 µg/mL | < 1 µg/mL | < 1 µg/mL | 1 to 10 µg/mL (≈ 1.97 to 19.7 µM) | 2 fold | < 1 µg/mL | < 1 µg/mL | 1 to 10 µg/mL (≈ 1.97 to 19.7 µM) | > 100 µg/mL
N#Cc1cnc2ccc(=O)n(CCN[C@H]3CC[C@H]4[C@@H](C3)OC(=O)N4c3ccc4c(n3)NC(=O)CO4)c2c1 [Compound 46, 5-(2-{[(3aS,6S,7aR)-2-oxo-3-{3-oxo-2H,3H,4H-pyrido[3,2-b][1,4]oxazin-6-yl}-octahydro-1,3-benzoxazol-6-yl]amino}ethyl)-6-oxo-5,6-dihydro-1,5-naphthyridine-3-carbonitrile] | < 1 µg/mL | < 1 µg/mL | < 1 µg/mL | 2 fold | < 1 µg/mL | 1 to 10 µg/mL (≈ 1.99 to 19.9 µM) | < 1 µg/mL | 1 to 10 µg/mL (≈ 1.99 to 19.9 µM) | 1 to 10 µg/mL (≈ 1.99 to 19.9 µM) | 1 fold | 1 to 10 µg/mL (≈ 1.99 to 19.9 µM) | < 1 µg/mL | 1 to 10 µg/mL (≈ 1.99 to 19.9 µM) | > 100 µg/mL
